Like-named read-outs stand apart in the source and are kept apart here.
Legend:
[1] = target: GDP-bound NRAS wild-type protein (Homo sapiens, UniProt P01111); assay: Binding to NRAS by surface plasmon resonance (SPR), Single Cycle Kinetics; conditions: SPR; for NRAS/KRAS (ratio of KD value for NRAS to KD value for KRAS): GDP-bound NRAS wild-type protein vs GDP-bound KRAS wild-type protein
[2] = target: GDP-bound KRAS wild-type protein (Homo sapiens, UniProt P01116); assay: Binding to KRAS by surface plasmon resonance (SPR), Single Cycle Kinetics; conditions: SPR, Single Cycle Kinetics
GDP-bound KRAS wild-type protein, sequence (P01116 whole entry): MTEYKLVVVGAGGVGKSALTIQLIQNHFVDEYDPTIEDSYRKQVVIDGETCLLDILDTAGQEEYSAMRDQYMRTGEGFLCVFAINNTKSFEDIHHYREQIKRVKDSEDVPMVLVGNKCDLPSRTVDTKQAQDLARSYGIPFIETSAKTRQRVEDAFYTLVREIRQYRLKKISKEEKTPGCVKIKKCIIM

[3] = target: GDP-bound HRAS wild-type protein (Homo sapiens, UniProt P01112); assay: Binding to HRAS by surface plasmon resonance (SPR), Single Cycle Kinetics; conditions: SPR; for HRAS/KRAS (ratio of KD value for HRAS to KD value for KRAS): GDP-bound HRAS wild-type protein vs GDP-bound KRAS wild-type protein
GDP-bound HRAS wild-type protein, sequence (P01112 whole entry): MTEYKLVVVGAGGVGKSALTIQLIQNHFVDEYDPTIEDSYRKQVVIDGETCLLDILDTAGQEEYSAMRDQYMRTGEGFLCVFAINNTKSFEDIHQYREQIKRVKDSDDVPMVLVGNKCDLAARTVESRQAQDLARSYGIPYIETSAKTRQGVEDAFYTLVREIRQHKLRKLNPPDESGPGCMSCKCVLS

[4] = system: human lung cancer strain NCI-H441; conditions: read-out: NCI-H441 cell proliferation inhibitory activity, 50% proliferation inhibitory concentration (IC50 value); NCI-H441, four days, CellTiter-Glo;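 note: cell proliferation inhibition after four days measured by CellTiter-Glo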
[5] = 1:1 binding model, read-out: KD value with respect to GDP-bound KRAS wild-type protein
[6] = GDP-bound KRAS wild-type protein, read-out: KRAS KD

GDP-bound NRAS wild-type protein, sequence (P01111 whole entry): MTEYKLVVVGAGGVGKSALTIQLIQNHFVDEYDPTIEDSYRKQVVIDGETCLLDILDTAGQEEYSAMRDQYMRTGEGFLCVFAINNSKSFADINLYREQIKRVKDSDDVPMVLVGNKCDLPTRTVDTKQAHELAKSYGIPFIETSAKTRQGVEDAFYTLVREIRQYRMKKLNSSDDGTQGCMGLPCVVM

Row | Kd [2, 5] [nM] | Kd [2, 6] [nM] | IC50 [4] [nM] | Compound | NRAS/KRAS (ratio of KD value for NRAS to KD value for KRAS) [1] | ratio of the KD value with respect to GDP-bound NRAS wild-type protein to the KD value with respect to KRAS [1] | HRAS/KRAS (ratio of KD value for HRAS to KD value for KRAS) [3] | ratio of the KD value with respect to GDP-bound HRAS wild-type protein to the KD value with respect to KRAS [3]
1 | 0.27 | 0.27 | 4.9 | CCC[C@H]1C(=O)N[C@@H]([C@@H](C)CC)C(=O)N2CCC[C@H]2C(=O)N(C)[C@H]2C/C=C\CCN(C2=O)[C@@H](Cc2ccc(C(F)(F)F)cc2)C(=O)N(C)CC(=O)N[C@@H](CCc2ccc(C(F)(F)F)c(OC)c2)C(=O)N2C[C@H](OCC)C[C@H]2C(=O)N(C)C2(CCC2)C(=O)N(C)[C@@H](C2CCCC2)C(=O)N(C)[C@H](C(=O)N2CCCC2)CC(=O)N1C [PP3101] | A (a compound having 10 or more and less than 20 is denoted as A) | A (a compound having 10 or more and less than 20 is denoted as A) | A (a compound having 10 or more and less than 20 is denoted as A) | A (a compound having 10 or more and less than 20 is denoted as A)
2 | 0.18 | 0.18 | 6.7 | CCC[C@H]1C(=O)N[C@@H]([C@@H](C)CC)C(=O)N2CCC[C@H]2C(=O)N(C)[C@H]2C/C=C\CCN(C2=O)[C@@H](Cc2ccc(C)cc2)C(=O)N(C)CC(=O)N[C@@H](CCc2ccc(C(F)(F)F)c(OC)c2)C(=O)N2C[C@H](OCC)C[C@H]2C(=O)N(C)C2(CCC2)C(=O)N(C)[C@@H](C2CCCC2)C(=O)N(C)[C@H](C(=O)N2CCCC2)CC(=O)N1C [PP3102, (1S,4S,10S,13S,17S,20S,26S,28R,32S,38S,42Z)-20-cyclopentyl-28-ethoxy-32-[2-[3-methoxy-4-(trifluoromethyl)phenyl]ethyl]-2,14,18,21,24,36-hexamethyl-10-[(1S)-1-methylpropyl]-13-propyl-38-(p-tolylmethyl)-17-(pyrrolidine-1-carbonyl)spiro[2,8,11,14,18,21,24,30,33,36,39-undecazatetracyclo[37.5.1.0^4,8.0^26,30]pentatetracont-42-ene-23,1′-cyclobutane]-3,9,12,15,19,22,25,31,34,37,45-undecone] | A (a compound having 10 or more and less than 20 is denoted as A) | A (a compound having 10 or more and less than 20 is denoted as A) | A (a compound having 10 or more and less than 20 is denoted as A) | A (a compound having 10 or more and less than 20 is denoted as A)

Row | Compound | Kd [2, 5] [nM] | Kd [2, 6] [nM] | IC50 [4] [nM] | NRAS/KRAS (ratio of KD value for NRAS to KD value for KRAS) [1] | ratio of the KD value with respect to GDP-bound NRAS wild-type protein to the KD value with respect to KRAS [1] | HRAS/KRAS (ratio of KD value for HRAS to KD value for KRAS) [3] | ratio of the KD value with respect to GDP-bound HRAS wild-type protein to the KD value with respect to KRAS [3]
3 | CCC[C@H]1C(=O)N[C@@H]([C@@H](C)CC)C(=O)N(C)CC(=O)N(C)[C@H]2C/C=C\CCN(C2=O)[C@@H](Cc2ccc(C)cc2)C(=O)N(C)CC(=O)N[C@@H](CCc2ccc(C(F)(F)F)c(OC)c2)C(=O)N2C[C@H](OCC)C[C@H]2C(=O)N(C)C2(CCC2)C(=O)N(C)[C@@H](C2CCCC2)C(=O)N(C)[C@H](C(=O)N2CCCCC2)CC(=O)N1C [PP3104, (2S,8S,12R,14S,20S,23S,27S,30S,36S,38Z)-20-cyclopentyl-12-ethoxy-8-[2-[3-methoxy-4-(trifluoromethyl)phenyl]ethyl]-4,16,19,22,26,32,35-heptamethyl-30-[(1S)-1-methylpropyl]-23-(piperidine-1-carbonyl)-27-propyl-2-(p-tolylmethyl)spiro[1,4,7,10,16,19,22,26,29,32,35-undecazatricyclo[34.5.1.0^10,14]dotetracont-38-ene-17,1′-cyclobutane]-3,6,9,15,18,21,25,28,31,34,42-undecone] | 0.097 | 0.097 | 3.8 | A (a compound having 10 or more and less than 20 is denoted as A) | A (a compound having 10 or more and less than 20 is denoted as A) | A (a compound having 10 or more and less than 20 is denoted as A) | A (a compound having 10 or more and less than 20 is denoted as A)
